Test results reported in US7880007B2, “Bicyclic substituted phenyl piperidine modulators of muscarinic receptors” (Vertex Pharmaceuticals Incorporated, priority 2004, dated 2011).

How the values were obtained:
Format in all cases: cell-based
[1] = molecular target: T1, M2 muscarinic receptor (Homo sapiens, UniProt P08172); test: Functional mobilization of intracellular calcium (FLIPR), M2-CHO cells; settings: for M2 Activity: M2-CHO cells, calcium mobilization (FLIPR)
T1 construct: expressed in transfected cells; host or cells: CHO (M2-CHO)
T1 sequence (P08172 1-466): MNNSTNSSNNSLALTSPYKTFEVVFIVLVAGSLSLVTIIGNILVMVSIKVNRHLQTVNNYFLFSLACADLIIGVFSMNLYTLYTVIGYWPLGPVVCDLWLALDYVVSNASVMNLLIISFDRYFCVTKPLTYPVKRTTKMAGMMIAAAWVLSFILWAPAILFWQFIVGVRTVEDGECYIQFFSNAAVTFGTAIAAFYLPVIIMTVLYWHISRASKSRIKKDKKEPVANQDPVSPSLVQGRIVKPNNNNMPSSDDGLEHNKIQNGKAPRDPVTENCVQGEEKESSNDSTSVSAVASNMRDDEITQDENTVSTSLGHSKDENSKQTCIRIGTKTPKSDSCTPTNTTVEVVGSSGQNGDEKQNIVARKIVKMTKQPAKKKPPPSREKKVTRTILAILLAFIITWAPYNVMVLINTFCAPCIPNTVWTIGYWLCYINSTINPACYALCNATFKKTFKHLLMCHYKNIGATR
Summary of the method: (§1)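 CHO cells expressing human M1–M4 receptors loaded with Fluo-3 AM or Calcium 3 dye (1 mM probenecid, pH 7.4); 0.5% DMSO final. Agonist mode: compound added directly; antagonist mode: 15 min pre-incubation or co-application, then carbachol at EC80. Fluorescence read 60 s on FLIPR; efficacy relative to carbachol maximum.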

[2] = molecular target: T2, M1 muscarinic receptor (Homo sapiens, UniProt P11229); test: Functional mobilization of intracellular calcium (FLIPR), M1-CHO cells; settings: for M1 Activity: M1-CHO cells, calcium mobilization (FLIPR)
T2 construct: expressed in transfected cells; host or cells: CHO (M1-CHO)
T2 sequence (P11229 1-460): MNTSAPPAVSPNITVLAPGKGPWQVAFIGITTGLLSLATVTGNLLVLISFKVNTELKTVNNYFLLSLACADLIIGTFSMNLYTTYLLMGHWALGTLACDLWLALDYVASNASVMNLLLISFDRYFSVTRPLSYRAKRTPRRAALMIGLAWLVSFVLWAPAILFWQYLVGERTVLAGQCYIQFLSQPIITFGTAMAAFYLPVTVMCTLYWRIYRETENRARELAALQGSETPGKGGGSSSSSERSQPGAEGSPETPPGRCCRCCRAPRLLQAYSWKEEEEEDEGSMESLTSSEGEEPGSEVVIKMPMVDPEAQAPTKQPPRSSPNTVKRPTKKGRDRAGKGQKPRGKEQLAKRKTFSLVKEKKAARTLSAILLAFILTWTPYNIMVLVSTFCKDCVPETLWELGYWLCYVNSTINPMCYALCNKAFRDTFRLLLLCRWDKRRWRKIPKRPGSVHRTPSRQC
Summary of the method: as §1

[3] = molecular target: T3, M4 muscarinic receptor (Homo sapiens, UniProt P08173); test: Functional mobilization of intracellular calcium (FLIPR), M4-CHO cells; settings: for M4 Activity: M4-CHO cells, calcium mobilization (FLIPR)
T3 construct: expressed in transfected cells; host or cells: CHO (M4-CHO)
T3 sequence (P08173 1-479): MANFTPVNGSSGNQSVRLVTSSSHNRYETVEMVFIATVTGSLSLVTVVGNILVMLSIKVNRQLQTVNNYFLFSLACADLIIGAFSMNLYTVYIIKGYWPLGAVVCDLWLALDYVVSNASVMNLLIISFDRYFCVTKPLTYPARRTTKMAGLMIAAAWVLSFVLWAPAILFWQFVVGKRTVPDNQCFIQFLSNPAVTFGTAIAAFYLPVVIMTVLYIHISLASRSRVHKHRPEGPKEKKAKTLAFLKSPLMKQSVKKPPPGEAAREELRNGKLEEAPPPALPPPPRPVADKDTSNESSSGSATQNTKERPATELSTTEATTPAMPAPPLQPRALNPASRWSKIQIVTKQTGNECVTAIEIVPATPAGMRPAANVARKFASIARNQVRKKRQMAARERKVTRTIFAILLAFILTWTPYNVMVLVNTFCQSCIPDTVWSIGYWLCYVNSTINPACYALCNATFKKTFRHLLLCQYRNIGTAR
Summary of the method: as §1

[4] = molecular target: T4, M3 muscarinic receptor (Homo sapiens, UniProt P20309); test: Functional mobilization of intracellular calcium (FLIPR), M3-CHO cells; settings: for M3 Activity: M3-CHO cells, calcium mobilization (FLIPR)
T4 construct: expressed in transfected cells; host or cells: CHO (M3-CHO)
T4 sequence (P20309 whole entry): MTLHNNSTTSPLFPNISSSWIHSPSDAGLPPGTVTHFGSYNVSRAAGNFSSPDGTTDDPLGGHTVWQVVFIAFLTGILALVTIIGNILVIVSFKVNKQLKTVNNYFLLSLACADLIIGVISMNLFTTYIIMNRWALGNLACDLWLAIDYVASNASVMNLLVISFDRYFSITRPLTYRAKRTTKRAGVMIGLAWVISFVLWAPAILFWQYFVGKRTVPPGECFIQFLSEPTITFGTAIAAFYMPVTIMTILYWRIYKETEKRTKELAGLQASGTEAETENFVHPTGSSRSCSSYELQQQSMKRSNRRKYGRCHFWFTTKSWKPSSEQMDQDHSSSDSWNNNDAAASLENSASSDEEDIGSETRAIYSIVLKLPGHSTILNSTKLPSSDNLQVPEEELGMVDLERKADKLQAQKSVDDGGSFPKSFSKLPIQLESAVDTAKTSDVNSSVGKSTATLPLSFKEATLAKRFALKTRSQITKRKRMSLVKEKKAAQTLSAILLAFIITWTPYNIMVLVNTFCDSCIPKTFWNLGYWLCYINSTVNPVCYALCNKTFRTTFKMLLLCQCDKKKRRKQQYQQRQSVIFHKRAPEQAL
Summary of the method: as §1

[5] = 100% efficacy = maximum response obtained with the Carbachol control
[6] = 100% efficacy is the maximum response obtained with the Carbachol control

| SMILES | Emax [1, 5] [%] | Emax [2, 5] [%] | Emax [3, 5] [%] | Emax [4, 5] [%] | Emax [1, 6] [%] | Emax [2, 6] [%] | Emax [3, 6] [%] | Emax [4, 6] [%] | M2 Activity [1] | M1 Activity [2] | M4 Activity [3] | M3 Activity [4] | M2 Efficacy [1, 5] | M1 Efficacy [2, 5] | M4 Efficacy [3, 5] | M3 Efficacy [4, 5] |
| --- | --- | --- | --- | --- | --- | --- | --- | --- | --- | --- | --- | --- | --- | --- | --- | --- |
| CCOC(=O)N1C2CCC1CC(N1CCC(c3cc(OC)cc(F)c3F)CC1)C2 (stereo not shown) [Compound 322] | < 25 | 25 to 100 | 25 to 100 | < 25 |  |  |  |  | ++ (activity was measured to be from 1.0 μM to 5.0 μM) | +++ (activity was measured to be less than 1.0 μM) | +++ (activity was measured to be less than 1.0 μM) | + (activity was measured to be greater than 5.0 μM) |  |  |  |  |
| CCOC(=O)N1C2CCC1CC(N1CCC(c3cc(F)cc(F)c3OC)CC1)C2 (stereo not shown) [Compound 198] | < 25 | 25 to 100 | 25 to 100 | < 25 |  |  |  |  | + (activity was measured to be greater than 5.0 μM) | ++ (activity was measured to be from 1.0 μM to 5.0 μM) | +++ (activity was measured to be less than 1.0 μM) | + (activity was measured to be greater than 5.0 μM) |  |  |  |  |
| CC(C)Oc1ccccc1C1CCN([C@H]2C[C@H]3CC[C@H]2C3)CC1 [Compound 26] | < 25 | 25 to 100 | 25 to 100 | < 25 |  |  |  |  | + (activity was measured to be greater than 5.0 μM) | ++ (activity was measured to be from 1.0 μM to 5.0 μM) | +++ (activity was measured to be less than 1.0 μM) | + (activity was measured to be greater than 5.0 μM) |  |  |  |  |
| CCOC(=O)N1CCC(CN2CCC(OC)(c3cc(Cl)ccc3OC)CC2)CC1 [Compound 108] | < 25 | 25 to 100 | 25 to 100 | < 25 |  |  |  |  | ++ (activity was measured to be from 1.0 μM to 5.0 μM) | +++ (activity was measured to be less than 1.0 μM) | +++ (activity was measured to be less than 1.0 μM) | + (activity was measured to be greater than 5.0 μM) |  |  |  |  |
| CCOC(=O)N1CCC(N2CCC(F)(c3cc(Cl)ccc3OC)CC2)CC1 [Compound 368] |  |  |  |  |  |  |  |  | ++ (activity was measured to be from 1.0 μM to 5.0 μM) | ++ (activity was measured to be from 1.0 μM to 5.0 μM) | +++ (activity was measured to be less than 1.0 μM) | + (activity was measured to be greater than 5.0 μM) | ++ (efficacy was calculated to be from 100% to 25%) | ++ (efficacy was calculated to be from 100% to 25%) | ++ (efficacy was calculated to be from 100% to 25%) | + (efficacy was calculated to be less than 25%) |
| CCOC(=O)C(C)(C)Oc1ccccc1C1CCN([C@H]2C[C@H]3CC[C@H]2C3)CC1 [Compound 42] | < 25 | < 25 | < 25 | < 25 |  |  |  |  | + (activity was measured to be greater than 5.0 μM) | + (activity was measured to be greater than 5.0 μM) | ++ (activity was measured to be from 1.0 μM to 5.0 μM) | + (activity was measured to be greater than 5.0 μM) |  |  |  |  |
| COc1c(F)cc(F)cc1C1CCN([C@@H]2C[C@H]3CC[C@H]2C3)CC1 [Compound 103] | < 25 | < 25 | < 25 | < 25 |  |  |  |  | + (activity was measured to be greater than 5.0 μM) | + (activity was measured to be greater than 5.0 μM) | ++ (activity was measured to be from 1.0 μM to 5.0 μM) | + (activity was measured to be greater than 5.0 μM) |  |  |  |  |
| CNC(=O)c1ccc(-c2ccc(OC)c(C3CCN(C4CCOCC4)CC3)c2)cc1Cl [Compound 11] | < 25 | < 25 | 25 to 100 | < 25 |  |  |  |  | + (activity was measured to be greater than 5.0 μM) | + (activity was measured to be greater than 5.0 μM) | ++ (activity was measured to be from 1.0 μM to 5.0 μM) | + (activity was measured to be greater than 5.0 μM) |  |  |  |  |

Continued, in another order:

| Emax [1, 5] [%] | Emax [2, 5] [%] | Emax [3, 5] [%] | Emax [4, 5] [%] | Emax [1, 6] [%] | Emax [2, 6] [%] | Emax [3, 6] [%] | Emax [4, 6] [%] | SMILES | M2 Activity [1] | M1 Activity [2] | M4 Activity [3] | M3 Activity [4] | M2 Efficacy [1, 5] | M1 Efficacy [2, 5] | M4 Efficacy [3, 5] | M3 Efficacy [4, 5] |
| --- | --- | --- | --- | --- | --- | --- | --- | --- | --- | --- | --- | --- | --- | --- | --- | --- |
|  |  |  |  | < 25 | 25 to 100 | 25 to 100 | < 25 | COc1ccccc1C1CCN(C2CC3CC[C@H]2C3)CC1 (stereo in doubt) [Compound 397, 1-((1S,2R,4R)-bicyclo[2.2.1]heptan-2-yl)-4-(2-methoxyphenyl)piperidine] | + (activity was measured to be greater than 5.0 μM) | ++ (activity was measured to be from 1.0 μM to 5.0 μM) | +++ (activity was measured to be less than 1.0 μM) | + (activity was measured to be greater than 5.0 μM) |  |  |  |  |
|  |  |  |  | < 25 | < 25 | < 25 | < 25 | O=C(NCc1cccc(C2CCN(C3C[C@H]4CC[C@H]3C4)CC2)c1)C1CC1 (stereo partly shown) [Compound 391] | + (activity was measured to be greater than 5.0 μM) | + (activity was measured to be greater than 5.0 μM) | + (activity was measured to be greater than 5.0 μM) | + (activity was measured to be greater than 5.0 μM) |  |  |  |  |
| < 25 | < 25 | < 25 | < 25 |  |  |  |  | COc1ccc(-c2cccc(C(N)=O)c2)cc1C1CCN([C@@H]2C[C@H]3CC[C@H]2C3)CC1 [Compound 144] | + (activity was measured to be greater than 5.0 μM) | + (activity was measured to be greater than 5.0 μM) | + (activity was measured to be greater than 5.0 μM) | + (activity was measured to be greater than 5.0 μM) |  |  |  |  |
| < 25 | 25 to 100 | 25 to 100 | < 25 |  |  |  |  | CCOC(=O)N1CCC(CN2CCC(c3cccc4c3OCO4)CC2)CC1 [Compound 217] | + (activity was measured to be greater than 5.0 μM) | +++ (activity was measured to be less than 1.0 μM) | +++ (activity was measured to be less than 1.0 μM) | ++ (activity was measured to be from 1.0 μM to 5.0 μM) |  |  |  |  |
| 25 to 100 | 25 to 100 | 25 to 100 | < 25 |  |  |  |  | COc1ccc(F)cc1C1(F)CCN(C2CCC3CCC2C3)CC1 (stereo not shown) [Compound 242] | + (activity was measured to be greater than 5.0 μM) | ++ (activity was measured to be from 1.0 μM to 5.0 μM) | +++ (activity was measured to be less than 1.0 μM) | + (activity was measured to be greater than 5.0 μM) |  |  |  |  |
| < 25 | < 25 | 25 to 100 | < 25 |  |  |  |  | COc1ccc(-c2ccc(C(=O)N(C)C)cc2)cc1C1CCN([C@H]2C[C@H]3CC[C@H]2C3)CC1 [Compound 360] | + (activity was measured to be greater than 5.0 μM) | + (activity was measured to be greater than 5.0 μM) | ++ (activity was measured to be from 1.0 μM to 5.0 μM) | + (activity was measured to be greater than 5.0 μM) |  |  |  |  |
